Assays:
MAPK14 (human) [1] = target: MAPK14 (human) (UniProt Q16539); assay: Enzyme Assay; settings: A375; concentration not given here
MAPK14 (human) [2] = target: MAPK14 (human) (UniProt Q16539); assay: Enzyme Assay; settings: A375; concentration not given here; remark: listed apart in the source

Chain of MAPK14 (human) (Q16539 whole entry, looked up): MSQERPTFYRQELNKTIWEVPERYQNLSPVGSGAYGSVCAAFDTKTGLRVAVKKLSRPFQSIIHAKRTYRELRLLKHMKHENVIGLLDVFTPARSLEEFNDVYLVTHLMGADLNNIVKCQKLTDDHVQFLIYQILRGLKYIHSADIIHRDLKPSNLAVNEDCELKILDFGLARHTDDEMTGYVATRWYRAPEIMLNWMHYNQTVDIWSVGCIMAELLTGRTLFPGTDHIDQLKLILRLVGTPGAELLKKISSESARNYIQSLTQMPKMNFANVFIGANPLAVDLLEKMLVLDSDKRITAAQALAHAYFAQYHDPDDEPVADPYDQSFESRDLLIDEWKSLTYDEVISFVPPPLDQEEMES

SMILES	activity (MAPK14 (human) [1]) [%]	activity (MAPK14 (human) [2]) [%]
N#CC(=C(/N)Sc1ccccc1N)/C(C#N)=C(\N)Sc1ccccc1N	6.32	18.9
COc1cccc(-c2cc(=O)c3ccccc3o2)c1N	25.3	34.7

— the Kinase Knowledgebase extract (Sharma et al. 2016)
